Results reported in patent US8221728B2, “Silanic para-aminobenzalmalonate-substituted s-triazine compounds and photoprotective compositions comprised thereof” (L'Oreal, priority 2004, dated 2012).
“And” between values parts separate entries of the source, which are not always exact repeats. Equal values may be shown once.

What was measured:
[1] = UV absorption spectrum in ethanol; format: physicochemical
Experimental: 2,4,6-Tris(diethyl 4′-aminobenzalmalonate)-s-triazine (1 g, […]) (Example 1 of Application EP 0,507,691) is dissolved in 5 ml of trimethylsilylethyl alcohol while sparging with nitrogen. The mixture is subsequently heated at reflux for 25 hours with 0.2 g of para-toluenesulphonic acid. After addition of 30 ml of dichloromethane, the organic phase is washed with water and then with an aqueous sodium bicarbonate solution, and dried. It is concentrated under reduced pressure. The residue obtained is purified by chromatography on a silica column (eluent: heptane/AcOEt 85/15). 0.35 g (Yield 32%) of the derivative of Example 2 is collected in the form of a pale yellow gum: • UV (ethanol) λ max=355 nm; ε max=125 250;E1%=965. […]

[2] = Photostability of a film of 5% solution in Miglyol 812 under Oriel solar simulator, HPLC quantification; format: physicochemical; conditions: 5% by weight in Miglyol 812, 1 mg/cm^2 film, irradiated one hour, solar simulator UV-A=14.2 mW/cm^2, UV-B=0.41 mW/cm^2
Experimental: The two products were dissolved at 5% by weight in the oil Miglyol 812. Approximately 10 mg of oily solution are spread over 10 cm^2 at the surface of a hollow disc of frosted glass; the amount is determined by weighing.
The films of the oily solutions are irradiated for one hour using an Oriel solar simulator (UV-A=14.2 mW/cm^2; UV-B=0.41 mW/cm^2), then extracted with 10 ml of ethanol comprising 10% of isopropanol and subjected to ultrasound for 5 min. The products are quantified by HPLC of the extracts.
HPLC conditions: column: UP5WOD-25QS, 250×4.6 mm, 5 μm, Interchrom; eluent: methanol (Comparative Example 1) and 96% of methanol+4% of water (Example 1); flow rate: 1 ml/min; volume injected: 10 μl; detection: diode array; rt (min): 5.2 (Comparative Example 1) and 13.8 (Example 1).
The degrees of loss are determined by comparison of the amounts of product present in the irradiated samples and in the non-irradiated controls prepared simultaneously and treated in the same way (means over 3 samples; S=surface/mg solution): % loss=100×(So−Sirr)/So

% of disappearance (% loss) [2]	Compound	E1% [1]	ε max [1]	λ max [1]
	C[Si](C)(C)CCOC(=O)C(=Cc1ccc(Nc2nc(Nc3ccc(C=C(C(=O)OCC[Si](C)(C)C)C(=O)OCC[Si](C)(C)C)cc3)nc(Nc3ccc(C=C(C(=O)OCC[Si](C)(C)C)C(=O)OCC[Si](C)(C)C)cc3)n2)cc1)C(=O)OCC[Si](C)(C)C [Example 2, 2,4,6-tris(di(trimethylsilylethyl) 4′-aminobenzalmalonate)-s-triazine]	965	125 250	355 nm
11% and 10% and 9%	CC(C)COC(=O)C(=Cc1ccc(Nc2nc(Nc3ccc(C=C(C(=O)OCC(C)C)C(=O)OCC(C)C)cc3)nc(Nc3ccc(C=C(C(=O)OCC(C)C)C(=O)OCC(C)C)cc3)n2)cc1)C(=O)OCC(C)C [Compound (prior art), 2,4,6-Tris(diisobutyl 4′-aminobenzalmalonate)-s-triazine]			
	2,4,6-tris(di(trimethylsilylmethyl) 4′-aminobenzalmalonate)-s-triazine [Example 1]	987	118 970	355 nm
